Measurements from PubChem BioAssay AID256 (DTP/NCI, 2004).
“And” between values parts separate entries of the source, which are not always exact repeats. Equal entries are not always repeated. Inconclusive results and toxic doses are left out. Rule for the calls: active = survival T/C of 150% or more; inactive = T/C below 125% in these data.

Test system: CD2F1 mice, L1210 leukemia ip, survival T/C
Assay: NCI In Vivo Anticancer Drug Screen. Data for tumor model L1210 Leukemia (intraperitoneal) in CD2F1 (CDF1) mice
Settings: higher = longer survival
Summary of the method: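 Mice carrying a transplanted tumor received test compound or vehicle alone. The value is the measurement in the treated group divided by that in the vehicle-treated control group.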

[1] = endpoint: mean survival time, dose: 100.0 mg/kg/injection, schedule: Q01DX009 (ip), vehicle: saline
[2] = endpoint: mean survival time, dose: 200.0 mg/kg/injection, schedule: Q01DX009 (ip), vehicle: saline
[3] = endpoint: mean survival time, dose: 400.0 mg/kg/injection, schedule: Q01DX009 (ip), vehicle: saline
[4] = endpoint: mean survival time, dose: 100.0 mg/kg/injection, schedule: Q04DX003 (ip), vehicle: saline
[5] = endpoint: mean survival time, dose: 200.0 mg/kg/injection, schedule: Q04DX003 (ip), vehicle: saline
[6] = endpoint: mean survival time, dose: 400.0 mg/kg/injection, schedule: Q04DX003 (ip), vehicle: saline
[7] = endpoint: mean survival time, dose: 100.0 mg/kg/injection, schedule: Q04DX003 (ip), vehicle: saline with Tween-80
[8] = endpoint: mean survival time, dose: 200.0 mg/kg/injection, schedule: Q04DX003 (ip), vehicle: saline with Tween-80
[9] = endpoint: mean survival time, dose: 400.0 mg/kg/injection, schedule: Q04DX003 (ip), vehicle: saline with Tween-80
[10] = endpoint: mean survival time, dose: 100.0 mg/kg/injection, schedule: Q01DX009 (ip), vehicle: Klucel (hydroxypropylcellulose) (HPC)
[11] = endpoint: mean survival time, dose: 200.0 mg/kg/injection, schedule: Q01DX009 (ip), vehicle: Klucel (hydroxypropylcellulose) (HPC)
[12] = endpoint: mean survival time, dose: 400.0 mg/kg/injection, schedule: Q01DX009 (ip), vehicle: Klucel (hydroxypropylcellulose) (HPC)
[13] = endpoint: mean survival time, dose: 100.0 mg/kg/injection, schedule: Q01DX001 (ip), vehicle: saline with Tween-80
[14] = endpoint: mean survival time, dose: 200.0 mg/kg/injection, schedule: Q01DX001 (ip), vehicle: saline with Tween-80
[15] = endpoint: mean survival time, dose: 400.0 mg/kg/injection, schedule: Q01DX001 (ip), vehicle: saline with Tween-80
[16] = endpoint: mean survival time, dose: 200.0 mg/kg/injection, schedule: Q01DX001 (ip), vehicle: saline
[17] = endpoint: mean survival time, dose: 400.0 mg/kg/injection, schedule: Q01DX001 (ip), vehicle: saline
[18] = endpoint: mean survival time, dose: 100.0 mg/kg/injection, schedule: Q01DX009 (ip), vehicle: saline with Tween-80
[19] = endpoint: mean survival time, dose: 50.0 mg/kg/injection, schedule: Q01DX009 (ip), vehicle: saline with Tween-80
[20] = endpoint: mean survival time, dose: 50.0 mg/kg/injection, schedule: Q04DX002 (ip), vehicle: saline with Tween-80
[21] = endpoint: mean survival time, dose: 200.0 mg/kg/injection, schedule: Q01DX009 (ip), vehicle: saline with Tween-80

Measured: T/C

C=C1[C@@H](C)[C@H]2[C@H](Cc3ccccc3)NC(=O)[C@]23OC(=O)/C=C/[C@H](O)CCC[C@@H](C)C/C=C/[C@H]3[C@@H]1O
inactive: endpoint: mean survival time, dose: 0.5 mg/kg/injection, schedule: Q04DX002 (ip), vehicle: Klucel (hydroxypropylcellulose) (HPC) 100 % of control | endpoint: mean survival time, dose: 1.0 mg/kg/injection, schedule: Q04DX002 (ip), vehicle: Klucel (hydroxypropylcellulose) (HPC) 103 % of control | endpoint: mean survival time, dose: 2.0 mg/kg/injection, schedule: Q04DX002 (ip), vehicle: Klucel (hydroxypropylcellulose) (HPC) 100 % of control | endpoint: mean survival time, dose: 4.0 mg/kg/injection, schedule: Q04DX002 (ip), vehicle: Klucel (hydroxypropylcellulose) (HPC) 103 % of control | endpoint: mean survival time, dose: 8.0 mg/kg/injection, schedule: Q04DX002 (ip), vehicle: Klucel (hydroxypropylcellulose) (HPC) 95 % of control

Cc1cc(C)c(O)c(C)c1C
inactive: endpoint: mean survival time, dose: 31.25 mg/kg/injection, schedule: Q01DX009 (ip), vehicle: saline 100 % of control | endpoint: mean survival time, dose: 62.5 mg/kg/injection, schedule: Q01DX009 (ip), vehicle: saline 91 % of control | endpoint: mean survival time, dose: 125.0 mg/kg/injection, schedule: Q01DX009 (ip), vehicle: saline 95 % of control | endpoint: mean survival time, dose: 250.0 mg/kg/injection, schedule: Q01DX009 (ip), vehicle: saline 93 % of control

S=c1sc2ccccc2n1CN1CCOCC1
inactive: endpoint: median survival time, dose: 12.5 mg/kg/injection, schedule: Q01DX009 (ip), vehicle: saline with Tween-80 97 % of control and 104 % of control | endpoint: median survival time, dose: 25.0 mg/kg/injection, schedule: Q01DX009 (ip), vehicle: saline with Tween-80 100 % of control | endpoint: median survival time, dose: 50.0 mg/kg/injection, schedule: Q01DX009 (ip), vehicle: saline with Tween-80 101 % of control and 106 % of control | endpoint: median survival time, dose: 100.0 mg/kg/injection, schedule: Q01DX009 (ip), vehicle: saline with Tween-80 101 % of control and 108 % of control | endpoint: median survival time, dose: 200.0 mg/kg/injection, schedule: Q01DX009 (ip), vehicle: saline with Tween-80 98 % of control and 100 % of control

O=C(c1ccccc1Cl)c1cccc2ccccc12
inactive: [1] 110 % of control | [2] 96 % of control | [3] 94 % of control

O=C(O)CCc1nc2ccccc2c(=O)n1Cc1ccccc1
inactive: endpoint: mean survival time, dose: 100.0 mg/kg/injection, schedule: Q04DX003 (ip), vehicle: Klucel (hydroxypropylcellulose) (HPC) 106 % of control | endpoint: mean survival time, dose: 200.0 mg/kg/injection, schedule: Q04DX003 (ip), vehicle: Klucel (hydroxypropylcellulose) (HPC) 98 % of control | endpoint: mean survival time, dose: 400.0 mg/kg/injection, schedule: Q04DX003 (ip), vehicle: Klucel (hydroxypropylcellulose) (HPC) 95 % of control

COC(=O)C(NC=O)C(=O)OC
inactive: [1] 105 % of control | [4] 93 % of control | [2] 107 % of control | [5] 101 % of control | [3] 117 % of control | [6] 95 % of control

N#CCCP(CCC#N)CCCCP(CCC#N)CCC#N
inactive: endpoint: mean survival time, dose: 6.25 mg/kg/injection, schedule: Q01DX001 (ip), vehicle: saline with Tween-80 100 % of control | endpoint: mean survival time, dose: 12.5 mg/kg/injection, schedule: Q01DX001 (ip), vehicle: saline with Tween-80 96 % of control | endpoint: mean survival time, dose: 25.0 mg/kg/injection, schedule: Q01DX001 (ip), vehicle: saline with Tween-80 98 % of control and 102 % of control

CCCC(C)(COC(N)=O)COC(N)=O
inactive: [7] 96 % of control | [8] 98 % of control | [9] 96 % of control

CCC(CO)(CO)[N+](=O)[O-]
inactive: [1] 100 % of control | [2] 100 % of control | [3] 94 % of control

O=C(N/N=C/c1ccccc1)c1ccc(Cl)cc1
inactive: [10] 94 % of control | [11] 97 % of control | [12] 101 % of control

O=c1ccn(C2CC(O)C(CO)O2)cc1 (configuration not stated)
inactive: endpoint: mean survival time, dose: 100.0 mg/kg/injection, schedule: Q01DX005 (ip), vehicle: saline 101 % of control | endpoint: mean survival time, dose: 200.0 mg/kg/injection, schedule: Q01DX005 (ip), vehicle: saline 100 % of control

CCCCCCCCCCCCOC(=O)c1ccc([N+](=O)[O-])cc1
inactive: [13] 94 % of control | [14] 91 % of control | [15] 91 % of control

O=P(O)(O)Cc1ccccc1-c1ccccc1
inactive: endpoint: mean survival time, dose: 100.0 mg/kg/injection, schedule: Q01DX001 (ip), vehicle: saline 93 % of control | [16] 94 % of control | [17] 100 % of control

COc1c(C)c(Br)c(OC)c2ccccc12
inactive: [7] 94 % of control | [8] 94 % of control | [9] 100 % of control

CCOC(=O)N1C=Cc2ccccc2C1/C(N)=N/O (configuration not stated)
inactive: [13] 98 % of control | [10] 96 % of control | [14] 95 % of control | [11] 91 % of control | [15] 94 % of control | [12] 91 % of control

O=C1OC(=O)[C@H]2[C@@H]1[C@H]1C=C[C@@H]2OC1=O
inactive: endpoint: median survival time, dose: 12.5 mg/kg/injection, schedule: Q01DX009 (ip), vehicle: saline 98 % of control | endpoint: median survival time, dose: 25.0 mg/kg/injection, schedule: Q01DX009 (ip), vehicle: saline 104 % of control | endpoint: median survival time, dose: 50.0 mg/kg/injection, schedule: Q01DX009 (ip), vehicle: saline 104 % of control | endpoint: median survival time, dose: 100.0 mg/kg/injection, schedule: Q01DX009 (ip), vehicle: saline 104 % of control | endpoint: median survival time, dose: 200.0 mg/kg/injection, schedule: Q01DX009 (ip), vehicle: saline 96 % of control

Nc1cccc2scnc12 (tested in a mixture with another compound)
inactive: [7] 104 % of control | [8] 98 % of control | [9] 95 % of control

CCOC(=O)NCC[N+](C)(C)C
inactive: endpoint: mean survival time, dose: 6.25 mg/kg/injection, schedule: Q04DX003 (ip), vehicle: saline 100 % of control | endpoint: mean survival time, dose: 12.5 mg/kg/injection, schedule: Q04DX003 (ip), vehicle: saline 102 % of control | endpoint: mean survival time, dose: 25.0 mg/kg/injection, schedule: Q04DX003 (ip), vehicle: saline 105 % of control

CC(N)CCCO (configuration not stated)
inactive: [16] 109 % of control | [17] 94 % of control

CCCCCCCCCCCCCCCC(=O)Oc1ccc(/C(CC)=C(/CC)c2ccc(OC(=O)CCCCCCCCCCCCCCC)cc2)cc1
inactive: [18] 91 % of control

CC(=O)C(N=Nc1cccc2c1C(=O)c1cccc(Cl)c1C2=O)C(=O)Nc1ccccc1Cl (configuration not stated)
inactive: endpoint: mean survival time, dose: 75.0 mg/kg/injection, schedule: Q01DX001 (ip), vehicle: saline 89 % of control | endpoint: mean survival time, dose: 150.0 mg/kg/injection, schedule: Q01DX001 (ip), vehicle: saline 95 % of control

CC1(C)N=C(N)N=C(N)N1c1ccc(OCCCCNC(=O)c2ccc(S(=O)(=O)F)cc2)c(Cl)c1
inactive: endpoint: mean survival time, dose: 12.5 mg/kg/injection, schedule: Q01DX009 (ip), vehicle: saline with Tween-80 110 % of control | endpoint: mean survival time, dose: 25.0 mg/kg/injection, schedule: Q01DX009 (ip), vehicle: saline with Tween-80 110 % of control | [19] 119 % of control and 109 % of control | [20] 104 % of control | endpoint: mean survival time, dose: 100.0 mg/kg/injection, schedule: Q04DX002 (ip), vehicle: saline with Tween-80 104 % of control | endpoint: mean survival time, dose: 200.0 mg/kg/injection, schedule: Q04DX002 (ip), vehicle: saline with Tween-80 104 % of control

Cc1ccc(C(C)NC2=NCCO2)c(C)c1 (configuration not stated)
inactive: endpoint: mean survival time, dose: 25.0 mg/kg/injection, schedule: Q04DX002 (ip), vehicle: saline with Tween-80 91 % of control | [20] 95 % of control

Cc1ccc(C)n1-c1ccccc1
inactive: endpoint: mean survival time, dose: 100.0 mg/kg/injection, schedule: Q01DX009 (ip), vehicle: saline + alcohol 107 % of control | [7] 103 % of control | endpoint: mean survival time, dose: 200.0 mg/kg/injection, schedule: Q01DX009 (ip), vehicle: saline + alcohol 105 % of control | [8] 106 % of control | endpoint: mean survival time, dose: 400.0 mg/kg/injection, schedule: Q01DX009 (ip), vehicle: saline + alcohol 100 % of control | [9] 95 % of control

Cc1cc(N2CCCN(C)CC2)nc(/N=C(\N)Nc2ccc(Cl)c(Cl)c2)n1
inactive: [7] 88 % of control

O=C1NCCCN1O
inactive: [4] 104 % of control | [5] 100 % of control | [6] 112 % of control

O=P(Oc1ccccc1)(Oc1ccccc1)C(Nc1ccccc1)c1cccnc1 (configuration not stated)
inactive: [19] 102 % of control | [18] 97 % of control | [21] 94 % of control

O=C(O)c1cccc(S(=O)(=O)N(CCO)CCO)c1
inactive: [18] 94 % of control | [7] 98 % of control | [21] 94 % of control | [8] 94 % of control | [9] 94 % of control
